Activity calls are given as the source filed them.
Key:
[1] = reduction of Shn3 3'UTR-driven luciferase in osteoblasts – cell-based, Clone20 osteoblasts, firefly luciferase, cherry-picked, dose response (AID 624132); assay type: functional;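 further: firefly luciferase luminescence from reporter carrying the Shn3 3'UTR in osteoblasts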
[2] = Shn3 3'UTR reporter signal decrease – cell-based, Clone20 osteoblasts, firefly luciferase, cherry-pick, set 2, Schnurri-3 inhibitor project, dose response (AID 720490); assay type: functional;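 further: actives lower the luminescence signal as inhibitors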
[3] = loss of viability in HepG2 cells – cell-based, CellTiter-Glo, cherry-picked, cytotoxicity control for Shn3 inhibitor project, dose response (AID 624134); assay type: functional
[4] = molecular target: Oxysterols receptor LXR-beta (Homo sapiens, UniProt P55055); assay type: functional, cell-based;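 further: Cell-based luminescence dose-response assay of agonist activity at LXR, run as a confirmatory counterscreen to a daf-12 agonist screen; HEK293 cells with Gal4-LXR fusion and GAL4-driven luciferase reporter; agonist potency from rising luciferase signal of a Gal4-LXR reporter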
Sequence of Oxysterols receptor LXR-beta (P55055 whole entry, the tested form may be a part): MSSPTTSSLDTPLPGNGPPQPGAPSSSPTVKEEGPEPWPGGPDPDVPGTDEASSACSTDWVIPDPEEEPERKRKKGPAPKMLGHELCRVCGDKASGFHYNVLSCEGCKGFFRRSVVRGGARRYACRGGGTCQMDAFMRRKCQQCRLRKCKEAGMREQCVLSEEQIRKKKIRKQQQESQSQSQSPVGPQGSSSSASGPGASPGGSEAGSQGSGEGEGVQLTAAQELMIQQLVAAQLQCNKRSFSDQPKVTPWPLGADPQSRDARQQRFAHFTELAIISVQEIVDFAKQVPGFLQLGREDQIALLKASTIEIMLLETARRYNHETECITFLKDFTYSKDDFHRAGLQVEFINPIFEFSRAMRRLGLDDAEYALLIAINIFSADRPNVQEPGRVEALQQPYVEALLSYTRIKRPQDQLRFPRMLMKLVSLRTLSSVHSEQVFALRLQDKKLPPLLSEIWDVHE

[5] = viability loss in HEK293 cells – cell-based, plate reader, cherry-picked samples, cytotoxicity control, dose response (AID 743446); assay type: functional
[6] = Luminescence Cell-Based Dose Response HTS to Identify Inhibitors of 5'UTR Stem-Loop Driven Prion Protein mRNA Translation in H4 Neuroglioblastoma Cells. [Related pubchem assays: 1827 (Project Summary), 1813 (Primary HTS)]; assay type: functional
[7] = blockers of bursicon-stimulated LGR2 cAMP reporter – cell-based, HEK293, CRE-luciferase reporter, cherry pick, set 2, dose response (AID 743343); assay type: functional;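 further: transfected cells were stimulated with diluted bursicon conditioned medium after compound addition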
[8] = alpha-synuclein stem-loop luciferase translation blockers – H4 neuroglioma cells, luminescence, confirmation (AID 1988); assay type: functional, cell-based
[9] = toxicity toward HepG2 liver cells – cell-based, plate reader, cherry-pick, antagonist series, cytotoxicity control, dose response (AID 743416); assay type: functional
[10] = blockade of melanocortin 4 receptor signaling – cell-based, plate reader, cherry pick, counter-screen for LGR2 antagonist project, dose response (AID 743444); assay type: functional;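 further: transfected HEK 293 cells stimulated with alpha-MSH peptide; potency of inhibitors of the alpha-MSH evoked signal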
[11] = A549 cell cytotoxicity, dose response, cytotoxicity control, plate reader, cherry-pick, antagonist series (AID 743412); assay type: functional, cell-based
HEK293 [12] = experiment: EBV LMP1 TES2 canonical NF-kB signalling blockers – cell-based, HEK293, luciferase, cherry-pick, dose response (AID 588343); assay type: functional; conditions: Homo sapiens
fMet-Leu-Phe receptor = fMet-Leu-Phe receptor (Homo sapiens, UniProt P21462); experiment: formyl peptide receptor binders – dose response (AID 519); assay type: functional
Sequence of fMet-Leu-Phe receptor (P21462 whole entry): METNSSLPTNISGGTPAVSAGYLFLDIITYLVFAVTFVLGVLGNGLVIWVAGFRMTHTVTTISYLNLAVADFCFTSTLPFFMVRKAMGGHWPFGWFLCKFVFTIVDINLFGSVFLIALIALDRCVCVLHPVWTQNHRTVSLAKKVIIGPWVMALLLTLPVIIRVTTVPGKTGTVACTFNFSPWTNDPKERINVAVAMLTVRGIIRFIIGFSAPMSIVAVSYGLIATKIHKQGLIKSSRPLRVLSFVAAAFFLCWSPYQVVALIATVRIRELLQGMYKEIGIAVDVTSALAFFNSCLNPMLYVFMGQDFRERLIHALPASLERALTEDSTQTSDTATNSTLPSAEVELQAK

[13] = CMV-driven luciferase expression suppression in HEK293 – cell-based, luminescence, dry powder, counter-screen for Pax8 inhibitor project, dose response (AID 743020); assay type: functional
HEK293 [14] = experiment: viability loss in HEK293T cells – cell-based, ATP luminescence, cherry-pick samples, cytotoxicity control, dose response (AID 687005); assay type: functional; conditions: Homo sapiens;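 further: cells exposed to compound for 48 hours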
[15] = HEK293 Cytotoxicity Assay Measured in Cell-Based System Using Plate Reader - 7071-01_Inhibitor_Dose_CherryPick_Activity_Set2.; assay type: functional
Paired box protein Pax-8 = Paired box protein Pax-8 (Homo sapiens, UniProt Q06710); experiment: PAX8 transcriptional activity inhibition in RMG-I – RMG-I cells, luciferase, cherry-pick, dose response (AID 687027); assay type: functional, cell-based;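 further: luciferase reporter driven by Pax8 target thyroperoxidase promoter measured by SteadyGlo luminescence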
Sequence of Paired box protein Pax-8 (Q06710 whole entry): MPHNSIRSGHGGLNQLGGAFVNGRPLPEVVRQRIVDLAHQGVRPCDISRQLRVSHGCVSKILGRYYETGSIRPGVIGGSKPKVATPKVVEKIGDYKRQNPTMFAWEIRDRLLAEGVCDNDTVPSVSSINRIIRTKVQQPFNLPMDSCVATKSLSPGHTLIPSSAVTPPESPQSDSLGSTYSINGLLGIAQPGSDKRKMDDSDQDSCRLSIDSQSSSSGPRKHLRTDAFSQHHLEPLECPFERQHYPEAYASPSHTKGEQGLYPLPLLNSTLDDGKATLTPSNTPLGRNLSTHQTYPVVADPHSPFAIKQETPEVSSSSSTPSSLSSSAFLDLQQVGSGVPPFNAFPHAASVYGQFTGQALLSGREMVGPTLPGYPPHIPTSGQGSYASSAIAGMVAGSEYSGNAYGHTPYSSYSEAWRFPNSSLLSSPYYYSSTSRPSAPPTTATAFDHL

[16] = reduced cellular PGC1a acetyl-lysine signal – cell-based, cherry-picked samples, dose response (AID 720514); assay type: functional;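 further: potency may reflect raised or lowered acetylation signal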
[17] = OVCAR8 cell viability loss – plate reader, dry powder samples, PAX8 project, dose response (AID 743197); assay type: functional, cell-based; conditions: OVCAR-8
Protein Wnt-3a = Protein Wnt-3a (Mus musculus, UniProt P27467); experiment: SAR analysis of small molecule antagonists of Gli-SUFU in a Wnt3a luminescent reporter assay.; assay type: functional
Sequence of Protein Wnt-3a (P27467 whole entry): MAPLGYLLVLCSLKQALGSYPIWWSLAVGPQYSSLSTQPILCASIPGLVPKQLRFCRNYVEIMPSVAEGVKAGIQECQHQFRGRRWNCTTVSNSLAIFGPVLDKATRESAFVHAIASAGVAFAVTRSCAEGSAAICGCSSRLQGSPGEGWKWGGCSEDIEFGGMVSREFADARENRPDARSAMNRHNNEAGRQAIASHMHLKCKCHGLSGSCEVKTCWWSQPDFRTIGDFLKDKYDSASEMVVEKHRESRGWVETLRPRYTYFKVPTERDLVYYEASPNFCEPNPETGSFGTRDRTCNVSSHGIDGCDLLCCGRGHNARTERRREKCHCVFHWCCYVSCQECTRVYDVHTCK

[18] = T. cruzi growth inhibition in host cells, dose response, cell-based, plate reader, dry powder, set 2 (AID 652275); assay type: functional

With `O=C(Nc1nc(-c2ccccc2)cs1)C1CCCCN1S(=O)(=O)c1ccccc1` (stereo not given) the AC50 [1] was 5.14 µM (active), the AC50 [2] was 5.89 µM (active) and the AC50 [3] was 58 µM (active).

With `Cc1ccc(CSc2nc3cc[nH]cc-3n2)cc1` the EC50 [4] was > 67.5 µM (inactive), the AC50 [5] was > 52 µM (inactive) and the EC50 [6] was 10.8 µM (active). The AC50 [7] was 2.93 µM (active), the EC50 [8] was 7.38 µM (active) and the EC50 (cells) was > 67.5 µM (inactive). For the same compound, the AC50 [9] was 31.6 µM (active), the AC50 [10] was 2.98 µM (active) and the AC50 [11] was 26.5 µM (active). The AC50 (HEK293 [12]) was 1.9 µM (active).

In the case of `O=C(NCc1cccnc1)C1c2ccccc2C(=O)N1C1CCCCCCC1` (stereo not given), the Ki (fMet-Leu-Phe receptor) is reported as 40.9 µM (inactive).

With `C[C@@H]1CN([C@@H](C)CO)C(=O)CCCn2nncc2CO[C@H]1CN(C)S(=O)(=O)c1ccc(Cl)cc1` the AC50 [13] was < 1 µM (active).

With `Cc1ccc(C2=NN(C(=O)c3ccc(Br)o3)C(c3ccc(C)cc3)C2)cc1` (stereo not given) the AC50 (HEK293 [14]) was 20.2 µM (active) and the AC50 [15] was 20.2 µM (active).

In the case of `C[C@H](CO)N1C[C@H](C)[C@H](CN(C)Cc2ccc(Cl)c(Cl)c2)Oc2c(NC(=O)Nc3ccccc3)cccc2C1=O`, the AC50 (HEK293 [14]) is reported as 18.8 µM (active) and the AC50 [15] is reported as 18.8 µM (active).

With `C[C@@H]1CCCCO[C@H](CN(C)Cc2ccc3c(c2)OCO3)[C@@H](C)CN([C@@H](C)CO)C(=O)c2cc(NC(=O)Nc3ccc(C(F)(F)F)cc3)ccc2O1` the AC50 (Paired box protein Pax-8) was 17.3 µM (active), the AC50 [16] was 11.3 µM (active) and the AC50 [13] was 41.9 µM (active). The AC50 [17] was 19.6 µM (active).

For `CN1CCN(c2cc(NC(=O)c3ccccc3)ncn2)CC1`, the IC50 (Protein Wnt-3a) was > 21.8 µM (inactive).

In the case of `O=C(Cc1ccccn1)N1CCCCN2[C@@H](CO)[C@H](c3ccc(Br)cc3)[C@@H]2C1`, the AC50 [18] is reported as 2.31 µM (active).
